One experiment addresses mu opioid receptor (MOR) (Homo sapiens (Human), UniProt P35372). Briefly: Competitive radioligand binding at MOR ([3H] Naloxone). As to the method: (§1) Receptor Binding at MOR and NMDA.
(§2) Affinities of various compounds were measured in vitro using competitive radioligand binding assays. Serial dilutions of test compounds were incubated with membranes prepared from CHO-K1 cells expressing the mu opioid receptor (MOR; for opioid receptor binding) or rat forebrain membranes (for NMDA receptor binding). 2 nM [^3H] Naloxone (MOR) or 0.2 nM [^3H] MK801 (NMDA) were used as the specific, competitive radioligands. 10 uM Naloxone (MOR), or 10 uM MK801 (NMDA) was used to determine non-specific binding. Bound radioactivity was measured using a scintillation counter & IC50 values for test compounds were determined by non-linear regression analysis using a one-site competition model (Graph Pad Prizm). Due to each test compound being solubilized in a buffered system for the assay, the results presented herein reflect the free base activity.

The next experiment concerns the target NMDA receptor. Kind of experiment: Competitive radioligand binding at NMDA receptor ([3H] MK801), rat forebrain membranes. Particulars: 0.2 nM [3H] MK801, reflects free base activity. The procedure:
as §1, §2

The mark [1] stands for this setting: membranes from CHO-K1 cells expressing MOR, 2 nM [3H] Naloxone, reflects free base activity, read-out: MOR IC50.

The structures appear in SMILES notation. pIC50: −log10 of the molar value. Like-named read-outs stand apart in the source and are kept apart here.

As usually defined, the pIC50 is the IC50 on a negative log10 scale, so that one unit is a factor of ten. As to `COCCOCCOCCO[C@H]1CC[C@H]2[C@H]3Cc4ccc(OC)cc4[C@@]2(CCN3C)C1` [Compound 1, (6α)-3-methoxy-6-{2-[2-(2-methoxyethoxy)ethoxy]ethoxy}-17-methylmorphinan], the pIC50 was below 6.00 on mu opioid receptor (MOR) (setting [1]) and below 5.00 at NMDA receptor.
In the same order, the values of `COCCOCCOCCOCCOCCO[C@H]1CC[C@H]2[C@H]3Cc4ccc(OC)cc4[C@@]2(CCN3C)C1` [Compound 2, (6α)-3-methoxy-17-methyl-6-(2,5,8,11,14-pentaoxahexadecan-16-yloxy)morphinan] are below 6.00 and below 5.00.
In the same order, the values of `COCCOCCOCCN1CC[C@]23CC(=O)CC[C@H]2[C@H]1Cc1ccc(OC)cc13` [Compound 4, 3-methoxy-17-{2-[2-(2-methoxyethoxy)ethoxy]ethyl}morphinan-6-one] are below 6.00 and below 5.00.
As to `COCCOCCN1CC[C@]23CC(=O)CC[C@H]2[C@H]1Cc1ccc(OC)cc13` [Compound 5, 3-methoxy-17-[2-(2-methoxyethoxy)ethyl]morphinan-6-one], the pIC50 on mu opioid receptor (MOR) was 6.00 to 7.00; at NMDA receptor, below 5.00.
In the same order, the values of `COCCOCCOCCN1CC[C@]23CC(=O)CC[C@H]2[C@H]1Cc1ccc(O)cc13` [Compound 6, 3-hydroxy-17-{2-[2-(2-methoxyethoxy)ethoxy]ethyl}morphinan-6-one] are 6.00 to 7.00 and below 5.00.
Turning to `COCCOCCOCCOCCOCCOc1ccc2c(c1)[C@]13CCN(C)[C@H](C2)[C@@H]1CCC(=O)C3` [Compound 8, 17-methyl-3-(2,5,8,11,14-pentaoxahexadecan-16-yloxy)morphinan-6-one], the figures for the pIC50 on mu opioid receptor (MOR) (setting [1]) and at NMDA receptor were below 6.00 and below 5.00, respectively.
Consider `COCCOCCOCCO[C@H]1CC[C@H]2[C@H]3Cc4ccc(O)cc4[C@@]2(CCN3C)C1` [Compound 9, (6α)-6-{2-[2-(2-methoxyethoxy)ethoxy]ethoxy}-17-methylmorphinan-3-ol], for which the values for the negative-log IC50 (pIC50) on mu opioid receptor (MOR) and on NMDA receptor were 7.00 to 8.00 and below 5.00, respectively.
Regarding `COCCOCCOCCOCCOCCO[C@H]1CC[C@H]2[C@H]3Cc4ccc(O)cc4[C@@]2(CCN3C)C1` [Compound 10, (6α)-17-methyl-6-(2,5,8,11,14-pentaoxahexadecan-16-yloxy)morphinan-3-ol], the negative logarithm of the IC50 (pIC50) was 6.00 to 7.00 on mu opioid receptor (MOR) (setting [1]) and below 5.00 at NMDA receptor.
Take `COCCN1CC[C@]23CCCC[C@H]2[C@H]1Cc1ccc(OC)cc13` [Compound 11, 3-methoxy-17-(2-methoxyethyl)-morphinan]: the pIC50 on mu opioid receptor (MOR) is 6.00 to 7.00; on NMDA receptor, 5.00 to 6.00.
In the case of `COCCOCCOCCN1CC[C@]23CCCC[C@H]2[C@H]1Cc1ccc(OC)cc13` [Compound 13, 3-methoxy-17-{2-[2-(2-methoxyethoxy)ethoxy]ethyl}-morphinan], the figures for the negative-log IC50 (pIC50) at mu opioid receptor (MOR) (setting [1]) and at NMDA receptor were below 6.00 and below 5.00, respectively.
Regarding `COCCOCCOCCOCCOCCOc1ccc2c(c1)[C@@]13CCCC[C@H]1[C@@H](C2)N(C)CC3` [Compound 14, 17-methyl-3-(2,5,8,11,14-pentaoxahexadecan-16-yloxy)morphinan], the pIC50 was below 6.00 at mu opioid receptor (MOR) (setting [1]) and below 5.00 on NMDA receptor.
Taken in the same sequence, the figures for `CCNC(=O)N1CC[C@]23CCCC[C@H]2[C@H]1Cc1ccc(OC)cc13` [Compound 17, N-ethyl-3-methoxymorphinan-17-carboxamide] were below 6.00 and below 5.00.
Molecule `COCCOc1c(OC)ccc2c1[C@@]13CCCC[C@H]1[C@@H](C2)N(C)CC3` [Compound 21, 3-methoxy-4-(2-methoxyethoxy)-17-methylmorphinan] had a negative-log IC50 (pIC50) on mu opioid receptor (MOR) of 6.00 to 7.00.
Turning to `COCCNC(=O)Nc1ccc2c(c1)[C@@]13CCCC[C@H]1[C@@H](C2)N(C)CC3` [Compound 23, 1-(2-methoxyethyl)-3-(17-methylmorphinan-3-yl)urea], the pIC50 on mu opioid receptor (MOR) is 6.00 to 7.00; at NMDA receptor, below 5.00.
In the same order, the values of `COc1ccc(C(=O)Nc2ccc3c(c2)[C@@]24CCCC[C@H]2[C@@H](C3)N(C)CC4)cc1` [Compound 24, 4-methoxy-N-((4bR,8aR,9R)-11-methyl-6,7,8,8a,9,10-hexahydro-5H-9,4b-(epiminoethano)phenanthren-3-yl)benzamide] are 6.00 to 7.00 and below 5.00.
Turning to `COc1cccc(C(=O)Nc2ccc3c(c2)[C@@]24CCCC[C@H]2[C@@H](C3)N(C)CC4)c1` [Compound 25, 3-methoxy-N-((4bR,8aR,9R)-11-methyl-6,7,8,8a,9,10-hexahydro-5H-9,4b-(epiminoethano)phenanthren-3-yl)benzamide], the pIC50 is below 6.00 on mu opioid receptor (MOR) (setting [1]) and below 5.00 at NMDA receptor.
In the same order, the values of `COc1ccccc1C(=O)Nc1ccc2c(c1)[C@@]13CCCC[C@H]1[C@@H](C2)N(C)CC3` [Compound 26, 2-methoxy-N-((4bR,8aR,9R)-11-methyl-6,7,8,8a,9,10-hexahydro-5H-9,4b-(epiminoethano)phenanthren-3-yl)benzamide] are below 6.00 and below 5.00.
In the case of `COc1ccc(NC(=O)Nc2ccc3c(c2)[C@@]24CCCC[C@H]2[C@@H](C3)N(C)CC4)cc1` [Compound 27, 1-(4-methoxyphenyl)-3-(17-methylmorphinan-3-yl)urea], the negative logarithm of the IC50 (pIC50) at mu opioid receptor (MOR) was 7.00 to 8.00; at NMDA receptor it was 5.00 to 6.00.
In the same order, the values of `COc1ccc(Nc2ccc3c(c2)[C@@]24CCCC[C@H]2[C@@H](C3)N(C)CC4)cc1` [Compound 28, N-(4-methoxyphenyl)-17-methylmorphinan-3-amine] are 8.00 to 10.00 and 5.00 to 6.00.
In the same order, the values of `COc1cccc(Nc2ccc3c(c2)[C@@]24CCCC[C@H]2[C@@H](C3)N(C)CC4)c1` [Compound 29, N-(3-methoxyphenyl)-17-methylmorphinan-3-amine] are 8.00 to 10.00 and 5.00 to 6.00.
In the same order, the values of `COCCO[C@@H]1CC[C@H]2[C@H]3Cc4ccc(O)cc4[C@@]2(CCN3C)C1` [Compound 31, (6β)-6-(2-methoxyethoxy)-17-methylmorphinan-3-ol] are 8.00 to 10.00 and 5.00 to 6.00.
As to `CN1CC[C@]23CCCC[C@H]2[C@H]1Cc1ccc(Nc2ncccn2)cc13` [Compound 32, 17-methyl-N-(pyrimidin-2-yl)morphinan-3-amine], the figures for the pIC50 at mu opioid receptor (MOR) (setting [1]) and on NMDA receptor were below 6.00 and 6.00 to 7.00, respectively.
Take `COCCOCCOc1cccc(Nc2ccc3c(c2)[C@@]24CCCC[C@H]2[C@@H](C3)N(C)CC4)c1` [Compound 34, N-{3-[2-(2-methoxyethoxy)ethoxy]phenyl}-17-methylmorphinan-3-amine]: the pIC50 on mu opioid receptor (MOR) (setting [1]) is 8.00 to 10.00; at NMDA receptor, below 5.00.
Taken in the same sequence, the figures for `COCCOCCOc1ccccc1Nc1ccc2c(c1)[C@@]13CCCC[C@H]1[C@@H](C2)N(C)CC3` [Compound 35, N-{2-[2-(2-methoxyethoxy)ethoxy]phenyl}-17-methylmorphinan-3-amine] were 6.00 to 7.00 and below 5.00.
Take `CN1CC[C@]23CCCC[C@H]2[C@H]1Cc1ccc(NS(C)(=O)=O)cc13` [Compound 37, N-(17-methylmorphinan-3-yl)methanesulfonamide]: the results for the pIC50 on mu opioid receptor (MOR) and at NMDA receptor were 6.00 to 7.00 and 5.00 to 6.00, respectively.
Taken in the same sequence, the figures for `COc1ccc(NC(=O)c2ccc3c(c2)[C@@]24CCCC[C@H]2[C@@H](C3)N(C)CC4)cc1` [Compound 38, N-(4-methoxyphenyl)-17-methylmorphinan-3-carboxamide] were 6.00 to 7.00 and below 5.00.
As for `COCCOCCNC(=O)c1ccc2c(c1)[C@@]13CCCC[C@H]1[C@@H](C2)N(C)CC3` [Compound 39, N-[2-(2-methoxyethoxy)ethyl]-17-methylmorphinan-3-carboxamide], the negative logarithm of the IC50 (pIC50) at mu opioid receptor (MOR) is 6.00 to 7.00; at NMDA receptor, below 5.00.
Taken in the same sequence, the figures for `CN1CC[C@]23CCCC[C@H]2[C@H]1Cc1ccc(NC(=O)OC(C)(C)C)cc13` [Compound 40, tert-butyl (17-methylmorphinan-3-yl)carbamate] were 6.00 to 7.00 and 5.00 to 6.00.
As to `COCCOCCOCCNC(=O)c1ccc2c(c1)[C@@]13CCCC[C@H]1[C@@H](C2)N(C)CC3` [Compound 41, N-{2-[2-(2-methoxyethoxy)ethoxy]ethyl}-17-methylmorphinan-3-carboxamide], the pIC50 is below 6.00 at mu opioid receptor (MOR) (setting [1]) and below 5.00 on NMDA receptor.
In the same order, the values of `COCCOCCOCCOCCOCCOCC(=O)Nc1ccc2c(c1)[C@@]13CCCC[C@H]1[C@@H](C2)N(C)CC3` [Compound 42, N-(17-methylmorphinan-3-yl)-2,5,8,11,14,17-hexaoxanonadecan-19-amide] are 6.00 to 7.00 and below 5.00.
On to `CN1CC[C@]23CCCC[C@H]2[C@H]1Cc1ccc(-c2ccncc2)cc13` [Compound 45, 17-methyl-3-(pyridin-4-yl)morphinan], for which the pIC50 was below 6.00 on mu opioid receptor (MOR) (setting [1]) and 5.00 to 6.00 at NMDA receptor.
In the same order, the values of `COCCOCCOc1cncc(Nc2ccc3c(c2)[C@@]24CCCC[C@H]2[C@@H](C3)N(C)CC4)c1` [Compound 48, N-{5-[2-(2-methoxyethoxy)ethoxy]pyridin-3-yl}-17-methylmorphinan-3-amine] are 7.00 to 8.00 and below 5.00.
Molecule `COCCOCCOCCOCCOCCOCCNc1nc2cc3c(cc2s1)C[C@@H]1[C@@H]2CCCC[C@]32CCN1C` [Compound 70, (4aR,5R,11bR)-14-methyl-N-(2,5,8,11,14,17-hexaoxanonadecan-19-yl)-2,3,4,4a,5,6-hexahydro-1H-5,11b-(epiminoethano)phenanthro[3,2-d][1,3]thiazol-9-amine] showed a pIC50 on NMDA receptor below 5.00.
